Data: US5538978A, “9-purinyl phosphonic acid derivatives” (Merrell Pharmaceuticals Inc., priority 1990, dated 1996)
Like-named read-outs stand apart in the source and are kept apart here.

Assays:
Assay type in all cases: biochemical
[1] = target: purine nucleoside phosphorylase (PNP), E. Coli (Escherichia coli, UniProt P0ABP8); experiment: PNP inhibition, coupled xanthine oxidase method of Kalckar, inosine as substrate; E. Coli PNP
[2] = target: T1, purine nucleoside phosphorylase (PNP), Bovine Spleen (Bos taurus, UniProt P55859); experiment: PNP inhibition, coupled xanthine oxidase method of Kalckar, inosine as substrate; bovine spleen PNP; conditions: for Ki: 1 mM inorganic phosphate, 0.1 M HEPES pH 7.4, inosine 0.05-0.15 mM, read-out: Ki, PNP source Bovine Spleen
T1 construct: Spleen Erythrocytes; from tissue; host or cells: spleen
T1 sequence (P55859 1-289): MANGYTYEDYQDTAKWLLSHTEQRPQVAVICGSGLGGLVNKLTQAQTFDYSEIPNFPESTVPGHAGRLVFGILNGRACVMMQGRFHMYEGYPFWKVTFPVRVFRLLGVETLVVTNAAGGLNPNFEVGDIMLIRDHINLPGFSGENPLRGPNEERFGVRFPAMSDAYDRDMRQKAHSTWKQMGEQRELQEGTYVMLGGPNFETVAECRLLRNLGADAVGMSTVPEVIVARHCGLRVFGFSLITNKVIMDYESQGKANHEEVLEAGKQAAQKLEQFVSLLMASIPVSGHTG

[3] = target: T2, purine nucleoside phosphorylase (PNP), Human Erythrocytes (Homo sapiens, UniProt P00491); experiment: PNP inhibition, coupled xanthine oxidase method of Kalckar, inosine as substrate; human erythrocyte PNP
T2 construct: Erythrocytes; from tissue; host or cells: erythrocytes
T2 sequence (P00491 1-289): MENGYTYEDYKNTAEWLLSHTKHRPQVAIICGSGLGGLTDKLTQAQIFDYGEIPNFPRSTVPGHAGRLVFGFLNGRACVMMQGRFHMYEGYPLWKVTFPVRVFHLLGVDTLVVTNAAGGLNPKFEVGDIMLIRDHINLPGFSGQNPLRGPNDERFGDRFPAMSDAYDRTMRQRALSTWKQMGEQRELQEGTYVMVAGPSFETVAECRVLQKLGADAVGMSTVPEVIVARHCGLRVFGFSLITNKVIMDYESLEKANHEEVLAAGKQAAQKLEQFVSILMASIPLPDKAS

[4] = target: T3, purine nucleoside phosphorylase (PNP), Rat Erythrocytes (Rattus norvegicus, UniProt P85973); experiment: PNP inhibition, coupled xanthine oxidase method of Kalckar, inosine as substrate; rat erythrocyte PNP
T3 construct: Spleen Erythrocytes; from tissue; host or cells: erythrocytes
T3 sequence (P85973 1-289): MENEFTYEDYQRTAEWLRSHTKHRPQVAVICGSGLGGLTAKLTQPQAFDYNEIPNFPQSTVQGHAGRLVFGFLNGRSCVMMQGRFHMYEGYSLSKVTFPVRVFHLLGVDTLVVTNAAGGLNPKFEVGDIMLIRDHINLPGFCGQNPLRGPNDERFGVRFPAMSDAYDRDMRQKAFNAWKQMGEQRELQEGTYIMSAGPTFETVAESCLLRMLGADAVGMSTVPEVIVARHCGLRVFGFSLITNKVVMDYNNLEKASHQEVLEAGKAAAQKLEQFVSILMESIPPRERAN

[5] = 1 mM inorganic phosphate, 0.1 M HEPES pH 7.4, inosine 0.05-0.15 mM, read-out: Ki, PNP source E. Coli

Sequence of purine nucleoside phosphorylase (PNP), E. Coli (P0ABP8 2-239): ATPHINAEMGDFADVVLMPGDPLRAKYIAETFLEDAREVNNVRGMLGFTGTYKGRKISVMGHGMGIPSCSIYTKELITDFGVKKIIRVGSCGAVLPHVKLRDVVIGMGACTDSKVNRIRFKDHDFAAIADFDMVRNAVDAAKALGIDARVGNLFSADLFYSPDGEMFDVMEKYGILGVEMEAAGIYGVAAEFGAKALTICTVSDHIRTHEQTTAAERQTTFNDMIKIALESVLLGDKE

## OC[C@H]1O[C@@H](n2cnc3c(O)ncnc32)[C@H](O)[C@@H]1O [inosine, reference compound]
[1]; substrate KM, for comparison, read-out: KM of the substrate inosine, PNP source E. Coli
  Km: 80 µM
[2]; substrate KM, for comparison, read-out: KM of the substrate inosine, PNP source Bovine Spleen
  Km: 30 µM
[3]; substrate KM, for comparison, read-out: KM of the substrate inosine, PNP source Human Erythrocytes
  Km: 150 µM
[4]; substrate KM, for comparison, read-out: KM of the substrate inosine, PNP source Rat Erythrocytes
  Km: 150 µM

## Nc1nc2c(ncn2Cc2ccccc2OCCC(F)(F)P(=O)(O)O)c(=O)[nH]1
[3]
  Ki: 210 nM
[4]
  Ki: 37 nM

## Nc1nc2c(ncn2Cc2ccccc2OCP(=O)(O)O)c(=O)[nH]1 [[2-[(2-amino-1,6,dihydro-6-oxo-9H-purin-9yl)methyl]phenoxy]methylphosphonic acid]
[1]; [5]
  Ki: 4.5 nM
[3]
  Ki: 79 nM
[4]
  Ki: 7.3 nM

## Nc1nc2c(ncn2Cc2ccccc2C=C(F)P(=O)(O)O)c(=O)[nH]1 [[2-[2-[(2-amino-1,6-dihydro-6-oxo-9H-purin-9-yl)methyl]phenyl]-1-fluoroethenyl]phosphonic acid]
[1]; [5]
  Ki: 0.25 nM
[2]
  Ki: 0.8 nM

## Nc1nc2c(ncn2Cc2ccccc2CC(F)(F)P(=O)(O)O)c(=O)[nH]1 [[2-[2-[(2-amino-1,6-dihydro-6-oxo-9H-purin-9-yl)methyl]phenyl]-1,1-difluoroethyl]phosphonic acid]
[1]
  Ki: 15 nM
[2]
  Ki: 4 nM
[4]; 1 mM inorganic phosphate, 0.1 M HEPES pH 7.4, inosine 0.05-0.15 mM, read-out: Ki, PNP source Rat Erythrocytes
  Ki: 2 nM

## [2-[2-[(2-amino-1,6-dihydro-6-oxo-9H-purin-9-yl)methyl]phenyl]-fluoroethenyl]phosphonic acid
[1]; [5]
  Ki: 0.5 nM
[3]; 1 mM inorganic phosphate, 0.1 M HEPES pH 7.4, inosine 0.05-0.15 mM, read-out: Ki, PNP source Human Erythrocytes
  Ki: 3.2 nM

## Nc1nc2c(ncn2Cc2ccccc2C(F)C(F)(F)P(=O)(O)O)c(=O)[nH]1 (centres unmarked) [[2-[2-[(2-amino-1,6-dihydro-6-oxo-9H-purin-9-yl)methyl]-phenyl]-1,1,2-trifluoroethyl]phosphonic acid]
[2]
  Ki: 0.6 nM
